Source: patent publication US20120244102A1, “AGENT FOR PREVENTING OR TREATING CROHN'S DISEASE, COMPRISING ORGANIC ACID POLYMER” (SANWA KAGAKU KENKYUSHO CO., LTD., priority 2010, published 2012)

Tested on: mouse TNBS-induced Crohn's disease model
Assay: mouse TNBS-induced Crohn's disease model (pathological score, intestinal lesion score)
Type: in vivo
Conditions: for intestinal lesion score: scale 0-10, control group 8.1
Method: Seven-week-old male BALB/c Cr Slc mice were purchased from Japan SLC, Inc. After 5 days of breeding for taming, the mice were divided into 5 groups so as to eliminate the difference between body weights, and subjected to an experiment.
The hair on 2 square-cm of the abdomen of the mouse was shaved, and 1% TNBS was applied to the skin. At 7 days after the application of TNBS, the mouse was fixed under anesthesia by halothane inhalation, and 100 μL of 2.0% TNBS was injected from the rectum to initiate intestinal lesions in Crohn's disease.
In the propagermanium-administered group, 0.015% of the propagermanium was mixed with a standard feedstuff for mice CRF-1 (manufactured by Oriental Yeast Co., Ltd.) and administered by ad libitum feeding from immediately after the injection of TNBS to 3 days after the initiation. The average dose during the period of the administration of the propagermanium was calculated to be about 7.5 mg/kg/day as a dose of the propagermanium per day, from the body weight and food consumption.
In the prednisolone-administered group as a positive control, prednisolone was administered once a day as 10 mL/kg of 0.5% CMC suspension using an oral canula for mice from immediately after the injection of TNBS to 3 days after the initiation. The dose was set to be 1 mg/kg/day that is the maximum amount of a clinical general dose (30 to 40 mg/day/person).
In the salazosulfapyridine-administered group as a positive control, salazosulfapyridine was administered twice a day for 3 days as 10 mL/kg of 0.5% CMC suspension using an oral canula for mice from immediately after the injection of TNBS to 3 days after the initiation. Two dose groups: a low dose group (133 mg/kg/day) that is the maximum amount in view of a clinical general dose and a high dose group (400 mg/kg/day) that is effective in rat TNBS models, were set.
At 1, 2 and 3 days after the TNBS initiation, the pathological score (the total of the scores of weight-loss, diarrhea/loose stool and occult blood/hemorrhage) was evaluated according to the following criteria.
(A) Weight-loss score (when the body weight before the TNBS initiation is considered to be 100%) • 0: No decrease • 1: Decreased by within 5% • 2: Decreased by 5-10% • 3: Decreased by 10-20% • 4: Decreased by more than 20%
(B) Diarrhea/loose stool score • 0: Normal. A solid form is maintained. • 2: Semi-solid loose stool. Wet, and readily collapses when being touched. • 4: Diarrhea, with flowability.
(C) Occult blood/hemorrhage score • 0: Normal. No blood is incorporated in stool. • 2: Occult blood. Blood is incorporated in stool. Perianal is slightly dirty. • 4: Bloody stool. Blood is incorporated in stool. Perianal is dirty with blood.
At 3 days after the TNBS initiation, Evans Blue was administered intravenously. At 30 minutes after the administration, the mouse was sacrificed by cervical dislocation, from the colon to the anus were excised and the inner cavity was washed with physiological saline, the lumen was opened, and the degree of the lesions was scored. The intestinal lesion score was evaluated by observing the colon by using a stereomicroscope according to the following criteria. • 0: No damage. • 1: Hyperemia • 2: Hyperemia and thickening of gut walls. No ulcer. • 3: Ulcer is present, but is not thickened. • 4: Plural lesion sites are present. • 5: Widespread lesion sites (1 cm or more in total) • 6: Widespread lesion sites (1.5 cm or more in total) • 7: Widespread lesion sites (2 cm or more in total) • 8: Widespread lesion sites (2.5 cm or more in total) • 9: Widespread lesion sites (3 cm or more in total) • 10: Widespread lesion sites (3.5 cm or more in total)

Question: What does the source list for “3-oxygermylpropionic acid polymer [propagermanium]”?
Answer: pathological score (total of weight-loss, diarrhea/loose stool and occult blood/hemorrhage scores) (7.5 mg/kg propagermanium mixed in feed, 2 days after the TNBS initiation): significant effect of improving the pathological score was confirmed; pathological score (total of weight-loss, diarrhea/loose stool and occult blood/hemorrhage scores) (7.5 mg/kg propagermanium mixed in feed, 3 days after the TNBS initiation): significant effect of improving the pathological score was confirmed

Question: For `C[C@]12C=CC(=O)C=C1CC[C@@H]1[C@@H]2[C@@H](O)C[C@@]2(C)[C@H]1CC[C@]2(O)C(=O)CO` [prednisolone], which “pathological score (total of weight-loss, diarrhea/loose stool and occult blood/hemorrhage scores)” value (1 mg/kg prednisolone oral, 2 days after the initiation) is on record?
Answer: effect was not observed

Question: And the “pathological score (total of weight-loss, diarrhea/loose stool and occult blood/hemorrhage scores)” value (1 mg/kg prednisolone oral, 3 days after the initiation)?
Answer: effect was observed

Question: And the intestinal lesion score (prednisolone 1 mg/kg oral, 3 days after the TNBS initiation)?
Answer: 5.2

Question: Which results are given for `O=C(O)c1cc(/N=N/c2ccc(S(=O)(=O)Nc3ccccn3)cc2)ccc1O` [salazosulfapyridine]?
Answer: pathological score (total of weight-loss, diarrhea/loose stool and occult blood/hemorrhage scores) (133 mg/kg salazosulfapyridine oral (low dose group)): significant improving effect was not observed; pathological score (total of weight-loss, diarrhea/loose stool and occult blood/hemorrhage scores) (400 mg/kg salazosulfapyridine oral (high dose group), 2 days after the initiation): improving effect was found; pathological score (total of weight-loss, diarrhea/loose stool and occult blood/hemorrhage scores) (400 mg/kg salazosulfapyridine oral (high dose group), 3 days after the initiation): improving effect was found; intestinal lesion score (salazosulfapyridine 133 mg/kg oral, 3 days after the TNBS initiation): 6.1; intestinal lesion score (salazosulfapyridine 400 mg/kg oral, 3 days after the TNBS initiation): 6.8
